The supplement of paper PMC8960247
Counter-ions that a name gives are not always drawn. ± gives the standard error.

Tests used:
621-102 (TSC2-deficient) = experiment: relative viability vs DMSO; higher = less cytotoxic; details: serum: 10% FBS, 72 h
621-103 (TSC2-rescued) = experiment: as above; details: serum: 10% FBS, 72 h
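Also: immortalized renal angiomyolipoma cells stably carrying empty vector or TSC2, dosed in 384-well plates in DMEM, viability normalized to vehicle-treated wells within each plate.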

Compound	relative viability (621-102 (TSC2-deficient); 0.0001 µM) [%]	relative viability (621-102 (TSC2-deficient); 0.001 µM) [%]	relative viability (621-102 (TSC2-deficient); 0.01 µM) [%]	relative viability (621-102 (TSC2-deficient); 0.1 µM) [%]	relative viability (621-102 (TSC2-deficient); 1 µM) [%]	relative viability (621-102 (TSC2-deficient); 10 µM) [%]	relative viability (621-103 (TSC2-rescued); 0.0001 µM) [%]	relative viability (621-103 (TSC2-rescued); 0.001 µM) [%]	relative viability (621-103 (TSC2-rescued); 0.01 µM) [%]	relative viability (621-103 (TSC2-rescued); 0.1 µM) [%]	relative viability (621-103 (TSC2-rescued); 1 µM) [%]	relative viability (621-103 (TSC2-rescued); 10 µM) [%]
CCN(CCO)CCCOc1ccc2c(Nc3cc(CC(=O)Nc4cccc(F)c4)[nH]n3)ncnc2c1 [AZD1152-HQPA (Barasertib)]	114 ± 6.7	111 ± 1.4	107 ± 2	79.4 ± 1.5	68.2 ± 0.79	73 ± 1.6	97.225 ± 0.04	98.1 ± 0.35	96.9 ± 0.98	91.9 ± 3.1	84.56 ± 0.56	85.5 ± 2.6
Cc1cc(Nc2nc(N[C@@H](C)c3ncc(F)cn3)ncc2Cl)[nH]n1 [AZD1480]	104 ± 2.1	101.7 ± 0.92	104 ± 1.7	100.8 ± 0.59	103 ± 3.8	87.7 ± 1.2	97.89 ± 0.31	89.6 ± 1.1	86.7 ± 3.9	92.2 ± 2.8	89.4 ± 2.6	53.6 ± 1.4
O=C(c1cc(Cc2n[nH]c(=O)c3ccccc23)ccc1F)N1CCN(C(=O)C2CC2)CC1 [AZD2281 (Olaparib)]	120 ± 2.1	129 ± 5.5	125 ± 5.6	120 ± 2.8	114.2 ± 0.69	81.75 ± 0.48	104 ± 1.5	103 ± 1.7	104.6 ± 0.91	99.6 ± 3.1	104 ± 1.5	98.4 ± 4.5
Cc1ncc(-c2ccnc(Nc3ccc(S(C)(=O)=O)cc3)n2)n1C(C)C [AZD5438]	103 ± 7.6	101 ± 1.4	95.4 ± 1.6	99.55 ± 0.14	88.1 ± 1.8	11.69 ± 0.054	110.9 ± 0.22	105.8 ± 0.22	98.7 ± 4.7	108 ± 1.6	89.4 ± 2.3	27.7 ± 0.92
Cn1cnc2c(F)c(Nc3ccc(Br)cc3Cl)c(C(=O)NOCCO)cc21 [AZD6244 (Selumetinib)]	84 ± 9.2	89.89 ± 0.22	96.8 ± 1.1	98.9 ± 5.4	84.7 ± 1.2	88.21 ± 0.5	101.6 ± 0.39	100.1 ± 0.89	105.2 ± 1	106 ± 1.1	104 ± 2.8	89 ± 2.5
COc1ccc(-c2ccc3c(N4CCOC[C@@H]4C)nc(N4CCOC[C@@H]4C)nc3n2)cc1CO [AZD8055]	80 ± 3.1	86.2 ± 2.7	66.51 ± 0.58	39.8 ± 0.67	21.4 ± 2.2	19 ± 0.54	90.4 ± 3.3	81.1 ± 4.3	69 ± 0.95	48.4 ± 0.71	34.6 ± 0.72	34.3 ± 1.4
Cc1cc(C(=O)NOCCO)c(Nc2ccc(I)cc2F)n(C)c1=O [AZD8330]	103 ± 1.4	102 ± 2.7	99.3 ± 1.3	96.05 ± 0.59	65.9 ± 1.7	58.5 ± 0.66	101.1 ± 0.99	92.9 ± 1.4	93.3 ± 1.4	93.1 ± 2.1	76.3 ± 0.95	68.4 ± 0.99
CNC(=O)CN1CCC(Oc2cc3c(Nc4cccc(Cl)c4F)ncnc3cc2OC)CC1 [AZD8931]	106 ± 2.5	104 ± 3	98.4 ± 2	96.61 ± 0.73	99.6 ± 2.1	93.4 ± 4.9	102 ± 1.5	99.7 ± 2.3	101 ± 2.6	100.3 ± 0.18	99 ± 1.7	83.2 ± 3.3
CC(=O)O[C@H]1CC[C@@]2(C)C(=CC[C@@H]3[C@@H]2CC[C@]2(C)C(c4cccnc4)=CC[C@@H]32)C1 [Abiraterone Acetate (CB7630)]	103 ± 1.5	108 ± 7	102 ± 0.7	97.3 ± 2.7	103 ± 1.2	94.6 ± 2.4	106 ± 5.8	104 ± 3.1	111 ± 2.3	111 ± 5.3	105 ± 2	102 ± 3.2
CC(=O)Nc1ccccc1 [Acetanilide]	87.9 ± 1.9	111 ± 0.29	109 ± 2.3	92 ± 3	113 ± 3.1	104 ± 1.7	104 ± 1.9	102 ± 4.6	106.2 ± 0.32	101 ± 4.2	103 ± 2.6	91.3 ± 1.3
Nc1[nH]cnc2ncnc1-2 [Adenine HCl]	93.9 ± 2	103 ± 0.93	97.03 ± 0.37	97.386 ± 0.086	96.5 ± 6.5	110.8 ± 1.1	95.5 ± 2.2	96.77 ± 0.35	92.9 ± 4.8	102.9 ± 0.83	96.7 ± 2.2	120 ± 2.1
Nc1[nH]cnc2ncnc1-2 [Adenine]	98 ± 4	96.5 ± 2.6	100 ± 3	97.9 ± 2.6	101 ± 2.1	112.7 ± 0.18	101 ± 3.9	98.5 ± 4.1	101 ± 1.6	97.3 ± 1.1	104.9 ± 0.9	117 ± 1.5
COc1cccc2c1C(=O)c1c(O)c3c(c(O)c1C2=O)C[C@@](O)(C(=O)CO)C[C@@H]3O[C@H]1C[C@H](N)[C@H](O)[C@H](C)O1 [Adriamycin]	102 ± 2	93.5 ± 5.5	71.1 ± 1.7	65.1 ± 2.7	17.4 ± 2.1	5.59 ± 0.56	102.4 ± 0.79	103 ± 1.9	87.9 ± 3.1	60.3 ± 1.4	13.01 ± 0.075	12 ± 0.24
NCCCC(O)(P(=O)(O)O)P(=O)(O)O [Alendronate Sodium]	99.4 ± 1.2	103 ± 1.3	103 ± 2.7	99.1 ± 5.1	99 ± 3.1	104.6 ± 0.43	98.7 ± 3.1	102 ± 1.5	101 ± 4.5	105.54 ± 0.079	104 ± 3.5	105 ± 2.9
COCCCOc1cc(C[C@@H](C[C@H](N)[C@@H](O)C[C@H](C(=O)NCC(C)(C)C(N)=O)C(C)C)C(C)C)ccc1OC [Aliskiren hemifumarate]	110 ± 2.6	111 ± 2.7	106 ± 5.1	112 ± 1.9	98.8 ± 5.5	95.9 ± 5.5	105 ± 2.6	100 ± 1.1	104 ± 6.3	94.7 ± 4.8	96.59 ± 0.53	98.8 ± 2.7
O=C1c2ccccc2C(=O)c2c1ccc(O)c2O [Alizarin]	108 ± 2.3	110 ± 0.84	108 ± 4.6	105 ± 1.5	107 ± 2.9	83 ± 3	101 ± 1.6	102 ± 5	101.4 ± 0.27	99.9 ± 3.2	95.2 ± 4.5	97.3 ± 1.1
Oc1ncnc2[nH]ncc12 [Allopurinol]	96.2 ± 0.32	105 ± 2.6	102 ± 1.7	91.9 ± 0.92	99.48 ± 0.58	101.9 ± 0.86	103 ± 3.1	98.4 ± 1.6	101 ± 3.5	98.7 ± 3.6	98.2 ± 1.6	100 ± 1.9
NC12CC3CC(CC(C3)C1)C2 [Amantadine HCl (Symmetrel)]	97.2 ± 2.8	96.9 ± 4.5	94.9 ± 3.8	98.5 ± 3.3	100.9 ± 0.5	98.09 ± 0.17	92.2 ± 5.4	98.7 ± 2.9	106 ± 2.3	111 ± 3.6	108 ± 1.8	96.89 ± 0.4
CC(NC(C)(C)C)C(=O)c1cccc(Cl)c1 (stereo not drawn) [Amfebutamone]	110 ± 2.9	103 ± 1.4	104.4 ± 0.4	112 ± 2.4	103 ± 2.4	103 ± 3.5	103.2 ± 0.3	105 ± 2.2	98.8 ± 1.9	101 ± 2.8	102 ± 2.8	102 ± 1.2
